The test deals with Jurkat FADD-/- TNF-alpha necroptosis, CellTiter-Glo ATP, 24 h. Kind of test: rescue of FADD-deficient Jurkat cells, IC50 – duplicate IC50, dose response (AID 463178).

Structures are written as SMILES. The source made the active and inactive calls.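 The calls were made as follows: active = IC50 below a set limit in both duplicate runs and mean IC50 below a set limit; inconclusive = IC50 above a set limit in only one run; inactive = IC50 above a set limit in both runs and mean.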 Bounds are passed on as bounds.

Take `Cc1cc([N+](=O)[O-])nn1Cc1ccc(F)cc1`: the IC50 is 7.15 µM.
Under `O=C(Nc1cccc(Cl)c1)N1N=CCC1c1ccccc1` (stereo not given) stands 1.28 µM.
Take `O=C(CN1CCN(C(c2ccccc2)c2ccccc2)CC1)N1N=CCC1c1ccccc1` (stereo not given): the IC50 was > 20 µM (inactive).
Consider `Cc1ccc(CC(=O)Nc2ncc([N+](=O)[O-])s2)cc1`, for which the IC50 was > 20 µM (inactive).
The value for `Cc1nnsc1C(=O)NNc1c(Cl)cccc1Cl` was 5.04 µM; that for `O=S(=O)(Nc1ccccc1)c1ccc2c(c1)CCO2` was 9.75 µM; that for `O=C(CSc1ccc(Cl)cc1)N1N=CCC1c1ccccc1` (stereo not given) was 16.4 µM.
As for `C/C(Cl)=C/CN1C(=O)C2C3C=CC(C3)C2C1=O` (stereo not given), the IC50 was 6.41 µM.
The value for `O=C(NNc1c(Cl)cccc1Cl)C1CCC1` was 9.85 µM.
`Clc1ccc(COn2ccnc2)cc1Cl`: the IC50 was 1.97 µM.
On to `COc1ccc(NC(=O)C(OC)c2ccccc2)cc1Cl` (stereo not given), for which the IC50 is 12 µM.
The value for `O=C(C1COc2ccccc2O1)N1CCc2ccccc21` (stereo not given) was 5.82 µM.
`COc1ccc(NC(=S)N2N=CCC2c2ccccc2)cc1` (stereo not given): the IC50 was 12.9 µM.
The value for `CC(C)c1ccc(O)c(NC(=O)c2cncc(Br)c2)c1` was > 20 µM (inactive).
Under `COc1ccc(/C=N/Nc2ccccn2)cc1O` stands 14.8 µM; under `O=C(NCc1c(Cl)cccc1Cl)c1ccc2nnsc2c1`, > 20 µM (inactive).
Regarding `Cc1ccc(Cn2cnc3sc4c(c3c2=O)CCC4)c(C)c1`, the IC50 is > 20 µM (inactive).
In the case of `O=[N+]([O-])c1ccc(Nc2ccccc2)nc1`, the IC50 is 15.3 µM.
Under `O=C(OC(C(=O)Nc1ccc([N+](=O)[O-])cc1Br)c1ccccc1)c1ccccc1` (stereo not given) stands > 20 µM (inactive); under `COC(C(=O)Nc1ccc(F)cc1)c1ccccc1` (stereo not given), 2.15 µM; under `O=[N+]([O-])c1ccc(Nc2cccc(F)c2)nc1`, 19.6 µM.
`O=C(Cc1c(F)cccc1Cl)Nc1ncc([N+](=O)[O-])s1`: the IC50 is > 20 µM (inactive).
As for `Cc1ccc(C)c(C2=NNC(=NCc3ccccc3)SC2)c1`, the IC50 is 15.2 µM.
Under `O=C(C1=NNCC1c1ccccc1)C1CO1` (stereo not given) stands 4.94 µM; under `Cc1nc2oc3ccccc3c(=O)c2c(=O)n1Cc1ccccc1`, 14.4 µM; under `COc1ccc(-n2cnc3cc(NS(=O)(=O)c4ccccc4)ccc32)cc1`, > 20 µM (inactive).
The value for `COC(C(=O)Nc1ccc(F)c(F)c1)c1ccccc1` (stereo not given) was 1.52 µM.
For `O=C(CSCc1ccc([N+](=O)[O-])cc1)NC1CC2CCC1C2` (stereo not given), the IC50 was 13.6 µM.
Under `O=[N+]([O-])c1ccc(Nc2ccccc2F)nc1` stands 15.5 µM; under `O=[N+]([O-])c1ncn(Cc2c(Cl)cccc2Cl)n1`, 13.1 µM.
Under `CC(NC(=O)c1cc(Br)ccc1Cl)c1ccccc1` (stereo not given) stands > 20 µM (inactive); under `COc1ccc(/C=N/Nc2nc3ccccc3s2)cc1O`, > 20 µM (inactive).
The value for `COc1ccc(/C=C2\N=C(SC)NC2=O)cc1` was > 20 µM (inactive); that for `Clc1ccc(C2=NNC(=NCc3ccccc3)SC2)cc1` was > 20 µM (inactive); that for `Brc1ccc(COn2ccnc2)cc1` was 6.31 µM.
In the case of `COc1ccc(NC(C)c2ccccc2)cc1` (stereo not given), the IC50 was 14.1 µM.
With `c1ccc(CSc2nnc(-c3ccco3)o2)cc1`, the IC50 is 17.3 µM.
As to `Cc1nn(Cc2c(F)cccc2Cl)c(C)c1[N+](=O)[O-]`, the IC50 was > 20 µM (inactive).
Under `O=[N+]([O-])c1ccc(Nc2ccc(Cl)cc2)nc1` stands > 20 µM (inactive).
Under `COC(=O)c1ccn(Cc2ccccc2Cl)n1` stands 0.881 µM; under `CC(=O)N(CC1CCCO1)c1nnc(-c2cnccn2)s1` (stereo not given), 5.94 µM.
For the compound `O=C(CSc1nnc2n1CCCN2C(=S)Nc1ccc(Cl)cc1)c1ccccc1`, the IC50 is > 20 µM (inactive).
Under `Cc1ccc(CN2CCSc3sccc3C2=O)cc1` stands 9.28 µM.
The value for `CC(=O)OC(C(=O)NC1CCCCC1)c1ccc(Cl)c(Cl)c1` (stereo not given) was > 20 µM (inactive).
The value for `COC(C(=O)Nc1ccc(F)cc1F)c1ccccc1` (stereo not given) was 0.969 µM; that for `COC(C(=O)Nc1cccc(F)c1)c1ccccc1` (stereo not given) was 6.43 µM.
Take `COCCNS(=O)(=O)c1ccc(SC)cc1`: the IC50 was 9.06 µM.
Under `O=C(Nc1ncc(Cc2ccccc2)s1)C1COc2ccccc2O1` (stereo not given) stands > 20 µM (inactive).
On to `COC(C(=O)Nc1ccccc1F)c1ccccc1` (stereo not given), for which the half-maximal inhibitory concentration (IC50) was 4.25 µM.
The value for `O=[N+]([O-])c1ccc(Nc2ccc(F)cc2)nc1` was 14.6 µM; that for `O=C(CSc1nnnn1-c1ccccc1)N1N=CCC1c1ccccc1` (stereo not given) was 6.27 µM.
Under `Cc1cnc(NC(=O)C2(c3ccccc3)CC2)s1` stands > 20 µM (inactive); under `CN(CC1CCCO1)S(=O)(=O)c1ccc(C(=O)Nc2nccs2)cc1` (stereo not given), 12.9 µM; under `COc1ccc(-c2nc3c(-c4ccccc4)cnn3cc2C)cc1F`, > 20 µM (inactive).
The value for `OC(c1ccccc1)c1nc2ccccc2s1` (stereo not given) was 14.6 µM.
For the compound `O=C(C1=NNCC1c1ccc(Cl)cc1)C1CO1` (stereo not given), the IC50 was 7.86 µM.
Consider `CC(=O)N(c1ccccc1)c1nnc(-c2cnc(C)cn2)s1`, for which the IC50 was 10.6 µM.
Under `c1ccc(C2CC3CC4(CCCC4)N2O3)cc1` (stereo not given) stands 3.81 µM; under `COC(C(=O)Nc1ccc(Br)cc1F)c1ccccc1` (stereo not given), 10.7 µM.
As for `O=C(CSC(=S)N1CCOCC1)N1N=CCC1c1ccccc1` (stereo not given), the IC50 was 9.41 µM.
`O=C(CSCc1ccc([N+](=O)[O-])cc1)NC1CCCCCC1`: the IC50 was 10 µM.
`O=C1CC(c2ccccc2)C(=O)N1c1cccc(O)c1` (stereo not given): the IC50 was 12.9 µM.
Under `O=C(Nc1ccc(Cl)c(Cl)c1)N1N=CCC1c1ccccc1` (stereo not given) stands 11.8 µM; under `C=C(C)CSc1nnc2n(Cc3ccccc3)c(=O)c3c4c(sc3n12)CCC4`, > 20 µM (inactive).
The value for `Cc1csc(Nc2ccccc2)[n+]1-c1ccccc1` was > 20 µM (inactive); that for `COc1ccc(/C=N/Nc2ccccn2)cc1OC` was > 20 µM (inactive).
The value for `O=C(COc1ccccc1Cl)NC(=O)NC1CCCC1` was 12.6 µM.
As for `Cc1ccc(NC(=O)C2COc3ccccc3O2)nc1` (stereo not given), the IC50 is 10 µM.
In the case of `O=C(Nc1nccs1)c1cc2c(s1)CCCCC2`, the IC50 is > 20 µM (inactive).
With `O=C(Nc1ccccc1)N1N=CCC1c1ccccc1` (stereo not given), the IC50 was 1.48 µM.
Under `COc1ccc(-n2c(C)nn(CC3CC3)c2=O)cc1` stands 5.12 µM; under `CCn1c(O)c(C=NCc2ccccc2)sc1=S`, > 20 µM (inactive); under `O=C(O)c1ccc(/C=N/Nc2ccc(C(F)(F)F)cn2)cc1`, 6.32 µM.
As for `Cc1cc(N/N=C/c2ccncc2)nc2ccccc12`, the IC50 is > 20 µM (inactive).
Under `O=C(Nc1ccc(Cl)cc1)N1N=CCC1c1ccccc1` (stereo not given) stands 11.6 µM.

Source of the values: PubChem BioAssay AID463178 (University of Pittsburgh Molecular Library Screening Center, 2010).
